Measured values as given in patent US20200276181A1, “THIENOISOQUINOLINES AND THEIR DERIVATIVES FOR TARGETING TUBULIN, CH-TOG, AURORA A KINASE, TPX2, CDK5RAP2 AND/OR ASPM” (VALORBEC, SEC, priority 2017, published 2020).

Tests used:
[1] = test system: HeLa (cervical adenocarcinoma) cells; assay: Cell viability IC50 (Table 3); format: cell-based, human
Experimental: (§1) To date, 30 variants with different structural modifications have been made. […] In particular, it is shown that C75 causes death in multiple cancer cells with IC50 values in the 100-400 nM range, including breast cancers (MCF7, BT549), lung cancer (A549), colorectal cancer (HCT116) in addition to HeLa cells (cervical cancer).

[2] = test system: A549 cells; assay: IC50 of derivatives (Table 5); format: cell-based, human; settings: for IC50: Table 5, cell line only named in b213 (A549)
[3] = test system: MCF7, BT549, A549, HCT116, HeLa cells; assay: Viability in cancer vs non-cancer cell lines, summary of Table 3; format: cell-based, human
Experimental: as §1

[4] = test system: A549 cells; assay: Spindle morphology, DAPI and tubulin staining; format: cell-based, human; settings: 300 nM, 4 hours
Experimental: FIG. 1A) is a line graph showing changes in the percentage of viable HFF-1, HeLa, A549 and HCT 116 cells after treatment with a range of C75 concentrations for 3 population doubling times (N=3). […] FIG. 1C) is a line graph showing the percentage of HeLa and HFF1 cells in mitosis after treatment with various concentrations of C75 for 8 hours. The bars indicate standard deviation. FIG. 1D) is a series of images showing cells that were fixed and co-stained for tubulin (microtubules) and DAPI (DNA). […] The scale bar for the cells is 10 μm. […] FIG. 1F) is a cartoon schematic showing the key features of a metaphase cell.

[5] = test system: HCT116 spheroids; assay: Multicellular tumour spheroids; format: cell-based; settings: 10 nM paclitaxel or 250 nM C75 alone, 6 days
Experimental: FIGS. 5A, 5B, 5C, 5D, 5E, 5F, 5G, 5H, 5I, 5J, 5K, 5L and 5M show how C75 disrupts or reduces the growth of HeLa, HCT116 and A549 spheroids. FIG. 5A) images show HeLa spheroids over time (3 days) before and after treatment with control (1 μM C87; n=10), 250 nM (n=6) or 500 nM (n=10) of C75. The scale bar is 100 μm. FIG. 5B) is a series images of HeLa spheroids after three days of treatment with control (500 nM C87) or 500 nM C75. The spheroids were stained for fluorescein diacetate (to detect live cells) and propidium iodide (to detect dead cells). […] The scale bar is 100 μm. FIG. 5C) is a line graph showing the change in spheroid area (μm^2) for each day and treatment as indicated. Bars show standard deviation and the asterisks are p<0.05 as determined by the student's t test. FIG. 5D) images show HeLa spheroids over 3 days before and after treatment with empty nanoparticles (control; n=3) or 250 nM of nanoparticle-encapsulated C75 (n=3). The scale bar is 100 μm. […] Bars show standard deviation and the asterisks are p<0.05 as determined by the student's t test. FIG. 5F) is a series of images of HCT116 spheroids treated with control (1 μM C87; n=10), 500 nM C75 (n=10) and 1 μM C75 (n=10). FIG. 5G) is a series images of HCT116 spheroids after six days of treatment with control (1 μM C87) or 1 μM C75. The spheroids were stained for fluorescein diacetate (live cells) and propidium iodide (dead cells). […] FIG. 5H) is a line graph showing the growth in surface area (%) of HCT116 spheroids treated with control (1 μM C87), 500 nM C75 and 1 μM C75 after six days. FIG. 5I) is a series of images of A549 spheroids treated with control (1 μM C87, n=6), 500 nM C75 (n=6), and 1 μM C75 (n=6) over 5 days. The scale bar is 100 μm. FIG. 5J) is a series of images of A549 spheroids after six days of treatment with control (750 nM C87) or 1 μM C75. The spheroids were stained for fluorescein diacetate (live cells) and propidium iodide (dead cells). […] Bars show standard deviation and the asterisks are p<0.05 as determined by the student's t test. FIG. 5L) images show A549 spheroids over 6 days before and after treatment with empty nanoparticles (control; n=3) or 500 nM of nanoparticle-encapsulated C75 (n=3). The scale bar is 100 μm. […] Bars show standard deviation and the asterisks are p<0.05 as determined by the student's t test.
FIG. 11A) is a series of images of HCT116 spheroids treated with control (DMSO), 10 nM paclitaxel, 250 nM C75 or both for 6 days. […] The scale bar for the images is 100 μm. […] As shown in the images, adding paclitaxel and C75 in combination led to regression in spheroid size compared to each treatment on its own.
The thienoisoquinoline compounds may also have potential for use in combinatorial therapies. […]

IC50 [1] | IC50 [2] | SMILES | also measured
– | > 1 µM | CC(C)(C)c1ccc(S(=O)(=O)N2Cc3ccccc3-c3sccc32)cc1 [Compound C109] | –
– | 0.635 µM | COc1ccc(S(=O)(=O)N2Cc3ccccc3-c3scc(C)c32)cc1 [Compound C127] | –
– | 0.549 µM | COc1ccc(S(=O)(=O)N2Cc3ccccc3-c3sc(Cl)c(C)c32)cc1 [Compound C128] | –
– | 0.439 µM | COc1ccc(S(=O)(=O)N2Cc3cccc([N+](=O)[O-])c3-c3sccc32)cc1 [Compound C130] | –
– | 0.801 µM | COc1ccc(S(=O)(=O)N2Cc3cccc([N+](=O)[O-])c3-c3sc(Br)cc32)cc1 [Compound C131] | –
– | > 1 µM | COc1ccc(S(=O)(=O)N2Cc3cccc(N)c3-c3sccc32)cc1 [Compound C132] | –
– | > 1 µM | COc1ccc(S(=O)(=O)N2Cc3c(Br)ccc(N)c3-c3sc(Br)cc32)cc1 [Compound C133] | –
– | 0.26 µM | COc1ccc(S(=O)(=O)N2Cc3ccccc3-c3sc(C=O)cc32)cc1 [Compound C140] | efficacy relative to C75 ([2]; A549 cells): higher efficacy; spindle phenotype [4]: causes spindle phenotypes similar to C75
– | 0.456 µM | Cc1ccc(S(=O)(=O)N2Cc3ccccc3-c3sc(C=O)cc32)cc1 [Compound C142] | –
– | > 1 µM | COc1ccc(S(=O)(=O)N2Cc3cc4c(cc3-c3sccc32)OCO4)cc1 [Compound C300] | –

Further lines, the compound ahead of its results:

SMILES | IC50 [1] | IC50 [2] | also measured
Cc1cccc(S(=O)(=O)N2Cc3ccccc3-c3sccc32)c1 [Compound C39] | > 1 µM | > 1 µM | –
Cc1ccc(S(=O)(=O)N2Cc3ccccc3-c3sc(-c4ccccc4)cc32)cc1 [Compound C71] | > 1 µM | > 1 µM | –
Cc1ccc(S(=O)(=O)N2Cc3ccccc3-c3sc(Br)cc32)cc1 [Compound C74] | > 1 µM | > 1 µM | –
Cc1ccc(S(=O)(=O)N2Cc3ccccc3-c3sccc32)cc1 [Compound C91] | – | – | IC50 ([2]; Homo sapiens): > 1 µM; efficacy (effect on viability) in cancer cells vs. non-cancer cells [3]: higher efficacy
Cc1cccc(S(=O)(=O)N2Cc3ccccc3-c3sc(Br)cc32)c1 [Compound C93] | > 1 µM | – | –
O=S(=O)(c1ccc(C(F)(F)F)cc1)N1Cc2ccccc2-c2sccc21 [Compound C108] | > 1 µM | > 1 µM | –
COc1ccc(S(=O)(=O)N2Cc3ccccc3-c3sc(C=O)c(C)c32)cc1 [Compound C138] | – | 0.416 µM | –
COc1ccc(S(=O)(=O)N2Cc3ccccc3-c3sc(Br)c(C)c32)cc1 [Compound C139] | – | > 1 µM | –
COc1ccc(S(=O)(=O)N2Cc3ccccc3-c3sc(C(=O)O)cc32)cc1 [Compound C141] | – | > 1 µM | –
Cc1ccc(S(=O)(=O)N2Cc3ccccc3-c3sc(C(=O)O)cc32)cc1 [Compound C143] | – | > 1 µM | –
O=S(=O)(c1ccc(C(F)(F)F)cc1)N1Cc2ccccc2-c2sc(Br)cc21 [Compound C200] | > 1 µM | > 1 µM | –
CC(C)(C)c1ccc(S(=O)(=O)N2Cc3ccccc3-c3sc(Br)cc32)cc1 [Compound C201] | > 1 µM | > 1 µM | –
COc1ccc(S(=O)(=O)N2Cc3ccccc3-c3sc(Cl)cc32)cc1 [Compound C208] | 0.204 µM | 0.434 µM | –
COc1ccc(S(=O)(=O)N2Cc3cc4c(cc3-c3sc(Br)cc32)OCO4)cc1 [Compound C301] | – | > 1 µM | –
CC(=O)O[C@H]1C(=O)[C@@]2(C)[C@H]([C@H](OC(=O)c3ccccc3)[C@]3(O)C[C@H](OC(=O)[C@H](O)[C@@H](NC(=O)c4ccccc4)c4ccccc4)C(C)=C1C3(C)C)[C@]1(OC(C)=O)CO[C@@H]1C[C@@H]2O [paclitaxel, reference compound] | – | – | spheroid growth, single drug [5]: failed to grow
